Test results reported in patent publication US10508103B2, “Benzimidazole-linked indole compound acting as novel divalent IAP antagonist” (MEDSHINE DISCOVERY INC., priority 2016, dated 2019).

Columns and labels:
cIAP2-BIR3 Protein = cIAP2-BIR3 Protein (Homo sapiens (Human), UniProt Q13489); assay: Fluorescence polarization affinity of compounds to cIAP2-BIR3; format: binding; conditions: cIAP2-BIR3 60 nM; 5 nM ARPFAQ-K(5-FAM)-NH2 probe; FP; pH 7.5; read-out: affinity to target protein in vitro, cIAP2-BIR3 Protein (IC50)
Protocol: (§1) Biological Assay 1: affinity of compounds to cIAP1-BIR3, cIAP2-BIR3, XIAP-BIR3 • 1) Affinity of compounds listed in table to cIAP1-BIR3, Ciap2-BIR3, XIAP-BIR3 was tested referring to Nikolovska-Colesks, Z. et.Al. (Analytical Biochemistry,2004,232:261-273) to obtain IC50 value. Generally speaking, in 10-dose IC50 mode, IAP antagonists with different concentrations were diluted in series by 3-fold and fluorescence labelled ARPFAQ-K (5-FAM)-NH2 peptide was used as probe to test compounds binding to protein BIR3 domain. • 2) Test condition: cIAP1-BIR3: 20 nM; cIAP2-BIR3: 60 nM; XIAP-BIR3: 30 nM; 5 nM probe in 100 mM tripotassium phosphate, pH 7.5, 0.1 mg/mL BSA, 0.005% Triton X100 and 0.5% DMSO. • 3) Test procedure: compounds were added into protein with different concentrations by using ECHO (LabCyte), and then the mixture was preincubated for 15 min. The probe was added and the final concentration was 5 nM. After incubating for 60 min, FP was tested and mP was calculated. Experiment results were list in table 1.

XIAP-BIR3 Protein = XIAP-BIR3 Protein (Homo sapiens (Human), UniProt P98170); assay: Fluorescence polarization affinity of compounds to XIAP-BIR3; format: binding; conditions: XIAP-BIR3 30 nM; 5 nM ARPFAQ-K(5-FAM)-NH2 probe; FP; pH 7.5; read-out: affinity to target protein in vitro, XIAP-BIR3 Protein (IC50)
Protocol: as §1

[1] = test system: NF-κB Luciferase Reporter Hela cells; assay: TNF-α inducing NF-κB reporter; format: cell-based
Protocol: Biological Assay 2: TNF-α inducing NF-κB reporter
• 1) tested compounds were added into DMSO to give parent liquor (10 mM); • 2) reference compound Birinapant (32 μL, 10 mM) was added into DMSO (128 μL) to give a solution (2 mM); • 3) 0.5 μL reference compound Birinapant (2 mM) and tested compounds (10 mM) were taken by Echo and added into Greiner 96 well black cell culture plate respectively. The initial concentration of the reference compound and tested compound was 10 μM and 50 μM, respectively. Then, the reference compound and tested compounds were diluted at 9 points in series by 5-fold; and every plate was repeated for 3 times. • 4) the reference compound WXFL2012A001 (Birinapant) (final concentration: 10 μM) as HPE and DMSO (final concentration: 0.5%) as ZPE.
• 5) purpose of the three repeated plates: the first plate was used for testing compounds' activity;
the second plate was used for testing cytotoxicity of the compounds; the third plate was used for solution replacement of the first and second plates: mixing inducer TNF-α and medium containing 0.1% FBS, and then being added to the third plate and the resultant mixture was transferred to the first plate where supernatants had been removed.
• 1) removing medium in NF-iBLuciferase Reporter Hela cell culture flask and washing cell once with PBS (10 mL) • 2) adding 0.25% pancreatin (3 mL) to T150 cell culture flask, and placinginto cell incubator (37° C., 5%CO2) and dissociating cell for 3 min, and then medium (10 mL) was added to end dissociation and blowing cells with electric pipette until cells were dispersed into single cell. • 3) Calculating cell density with cell counter Countstar • 4) Adjusting NF-κB Luciferase Reporter Hela density with medium to 2.0×10^5 cells/mL • 5) Adding cells to two Greiner 96 well black cell culture plates containing compounds, (100 μL per well (2.0×10^4 cells/well)), one plate was used for testing compounds' activity, another was used for testing cytotoxicity of the compounds. • 6) Placing cell culture plates into cell incubator (37° C., 5%CO2) and incubatingfor 24 h Second Day TNF-α Inducing • 1) TNF-α (100 μg/mL) was diluted into 20 ng/mL with 0.1% FBS medium and transferredto the third plate with 100 μL per well • 2) Removing medium of the first 96 well black cell culture plate (compound activity testing plate) after 24 h, replacing with fresh medium containing the compound and 20 ng/mL TNF-α in the third plate • 3) Placing cell culture plate into cell incubator (37° C., 5% CO2) and incubatingfor 6 h • 4) after 6 h, compound's activity in the first plate was tested according to Bright-Glo (Promega) manual method, luciferase signal in each well was tested by Envision plate reader • 5) compound's cytotoxicity in the second plate was tested according to ATPlite 1Step (Perkin Elmer) manual method, luciferase signal in each well was tested by Envision plate reader • 6) analyzing with software to obtain EC50 of compound.

cIAP1-BIR3 Protein = cIAP1-BIR3 Protein (Homo sapiens (Human), UniProt Q13490); assay: Fluorescence polarization affinity of compounds to cIAP1-BIR3; format: binding; conditions: cIAP1-BIR3 20 nM; 5 nM ARPFAQ-K(5-FAM)-NH2 probe; FP; pH 7.5; read-out: affinity to target protein in vitro, cIAP1-BIR3 Protein (IC50)
Protocol: as §1

[2] = Homo sapiens, 6 h, Table 3, 20 ng/mL TNF-α, Bright-Glo luciferase, values given as ranges

XIAP-BIR3 Protein, sequence (P98170 241-356): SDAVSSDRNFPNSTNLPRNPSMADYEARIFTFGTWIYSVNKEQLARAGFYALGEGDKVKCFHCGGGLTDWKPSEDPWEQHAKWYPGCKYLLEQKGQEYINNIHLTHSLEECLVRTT
cIAP2-BIR3 Protein, sequence (Q13489 238-349): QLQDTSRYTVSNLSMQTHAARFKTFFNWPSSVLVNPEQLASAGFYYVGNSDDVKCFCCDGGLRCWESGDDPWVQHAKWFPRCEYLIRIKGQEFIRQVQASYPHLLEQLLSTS
cIAP1-BIR3 Protein, sequence (Q13490 253-363): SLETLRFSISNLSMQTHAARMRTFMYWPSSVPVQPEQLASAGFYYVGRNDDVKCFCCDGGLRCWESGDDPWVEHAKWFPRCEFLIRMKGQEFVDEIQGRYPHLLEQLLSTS

Row | SMILES | IC50 (cIAP2-BIR3 Protein) [µM] | IC50 (XIAP-BIR3 Protein) [µM] | EC50 [1, 2] [µM] | IC50 (cIAP1-BIR3 Protein) [µM] | EC50 ([1]; Homo sapiens, Table 3, 20 ng/mL TNF-α, 6 h, Bright-Glo luciferase, values given as ranges) [µM]
1 | CN[C@@H](C)C(=O)N[C@H](C(=O)N1C[C@@H](F)C[C@H]1Cc1c(-c2nc3cc(F)ccc3n2C[C@@H]2C[C@H](F)CN2C(=O)[C@@H](NC(=O)[C@H](C)NC)C2CC2)[nH]c2cc(F)ccc12)C1CCCCC1 [Embodiment 23] | < 0.01 | 0.01 to 0.1 | < 0.01 | < 0.01 | 
2 | CC[C@H](NC(=O)[C@H](C)NC)C(=O)N1C[C@@H](F)C[C@H]1Cn1c(-c2[nH]c3cc(F)ccc3c2C[C@@H]2C[C@H](F)CN2C(=O)[C@@H](NC(=O)[C@H](C)NC)C(C)C)nc2cc(F)ccc21 [Embodiment 24] | 0.01 to 0.1 | 0.01 to 0.1 | 0.01 to 0.1 | < 0.01 | 
3 | CC[C@H](NC(=O)[C@H](C)NC)C(=O)N1C[C@@H](F)C[C@H]1Cn1c(-c2[nH]c3cc(F)ccc3c2C[C@@H]2C[C@H](F)CN2C(=O)[C@@H](NC(=O)[C@H](C)NC)C2CC2)nc2cc(F)ccc21 [Embodiment 25] | 0.01 to 0.1 | 0.01 to 0.1 | 0.01 to 0.1 | < 0.01 | 
4 | CC[C@H](NC(=O)[C@H](C)NC)C(=O)N1C[C@@H](F)C[C@H]1Cn1c(-c2[nH]c3cc(F)ccc3c2C[C@@H]2C[C@H](F)CN2C(=O)[C@@H](NC(=O)[C@H](C)NC)C(C)(C)C)nc2cc(F)ccc21 [Embodiment 26] | < 0.01 | < 0.01 |  | < 0.01 | < 0.01
5 | CC[C@H](NC(=O)[C@H](C)NC)C(=O)N1C[C@@H](F)C[C@H]1Cn1c(-c2[nH]c3cc(F)ccc3c2C[C@@H]2C[C@H](F)CN2C(=O)[C@@H](NC(=O)[C@H](C)NC)C2CCCCC2)nc2cc(F)ccc21 [Embodiment 27] | < 0.01 | < 0.01 | < 0.01 | < 0.01 | 
6 | CN[C@@H](C)C(=O)N[C@H](C(=O)N1C[C@@H](F)C[C@H]1Cn1c(-c2[nH]c3cc(F)ccc3c2C[C@@H]2C[C@H](F)CN2C(=O)[C@@H](NC(=O)[C@H](C)NC)C2CC2)nc2cc(F)ccc21)C(C)C [Embodiment 28] | 0.01 to 0.1 | < 0.01 | < 0.01 | < 0.01 | 
7 | CN[C@@H](C)C(=O)N[C@H](C(=O)N1C[C@@H](F)C[C@H]1Cc1c(-c2nc3cc(F)ccc3n2C[C@@H]2C[C@H](F)CN2C(=O)[C@@H](NC(=O)[C@H](C)NC)C(C)(C)C)[nH]c2cc(F)ccc12)C1CC1 [Embodiment 29] | 0.01 to 0.1 | 0.01 to 0.1 | < 0.01 | < 0.01 | 
8 | CN[C@@H](C)C(=O)N[C@H](C(=O)N1C[C@@H](F)C[C@H]1Cc1c(-c2nc3cc(F)ccc3n2C[C@@H]2C[C@H](F)CN2C(=O)[C@@H](NC(=O)[C@H](C)NC)C2CCCCC2)[nH]c2cc(F)ccc12)C1CC1 [Embodiment 30] | 0.01 to 0.1 | 0.01 to 0.1 | < 0.01 | < 0.01 | 
9 | CC[C@H](NC(=O)[C@H](C)NC)C(=O)N1C[C@@H](F)C[C@H]1Cc1c(-c2nc3cc(F)ccc3n2C[C@@H]2C[C@H](F)CN2C(=O)[C@@H](NC(=O)[C@H](C)NC)C2CC2)[nH]c2cc(F)ccc12 [Embodiment 31] | 0.01 to 0.1 | 0.01 to 0.1 | 0.01 to 0.1 | < 0.01 | 
10 | CCC[C@H](NC(=O)[C@H](C)NC)C(=O)N1C[C@@H](F)C[C@H]1Cc1c(-c2nc3cc(F)ccc3n2C[C@@H]2C[C@H](F)CN2C(=O)[C@@H](NC(=O)[C@H](C)NC)C(C)C)[nH]c2cc(F)ccc12 [Embodiment 32] | 0.01 to 0.1 | 0.01 to 0.1 | < 0.01 | < 0.01 | 
